Measured values taken from US10189782B2, “Derivatives of indole for the treatment of cancer, viral infections and lung diseases” (BIOKINESIS, priority 2012, dated 2019).
Structures can show the parent of a compound that is named as a salt.

Test system: K562 cells
Assay: Cytotoxicity on human cancer cells (WST-1), K562
Assay type: cell-based
Settings: K562, read-out: K562 IC50 (μM)
Method: Evaluation of Cytotoxicity Effects on Human Cancer Cells
The effects of the compounds of the invention on the viability of human cancer cells were studied on various human cancer cell lines of differing tissue origins (A549, NCI-H460: lung cancer; MDA-MB-231: breast cancer; HCT-116, HT-29: colon cancer; MIA-PaCa-2: pancreatic cancer; K562: leukaemia). All cell lines were obtained from ATCC or ECACC. Cells were cultured in the culture media described below, under a 37° C., 5% CO2 humidified atmosphere, according to a standard operating procedure.
On D0, the cells were plated in 90 μl in 96 wells plates at densities ranging from 500 to 5,000 cells per well.
Following addition of the test substance the cells were protected from light. The solvents (DMSO and specific control solvent were added at the maximal concentration: 10 μl/well (3 wells/condition)).
On D4, the Cell Proliferation Reagent WST-1 was added to each well (10 μl/well), according to a standard operating procedure. The cells were then incubated for 30 min to 4 h at 37° C.-5% CO2. After these incubations, the 96-well plates were shaken thoroughly for 1 min with Multiskan® EX apparatus (Thermo Labsystems, France). The absorbence was measured at 450 nm, the reference wavelength being 620 nm. The analysis of the results was performed with the Ascent software 2.6 (Thermo Labsystems, France), Microsoft Excel 2003 and GraphPad Prism 4.03 softwares to give the concentration of the compounds that induces the death of 50% of the cells (IC50).

| SMILES | IC50 [µM] |
| --- | --- |
| N#CC(=Cc1cccnc1)c1c[nH]c2ccccc12 [W02010/150211-Example 1, reference compound] | 21.4 |

Same assay, conditions: Table 4, K562 leukaemia cells, WST-1 on D4, read-out: K562 IC50

| SMILES | IC50 [µM] |
| --- | --- |
| N#C/C(=C\c1cnccc1O)c1c[nH]c2ccc(Cl)cc12 [Example 50, (Z)-2-(5-chloro-1H-indol-3-yl)-3-(4-hydroxypyridin-3-yl)acrylonitrile] | 14.7 |
| N#C/C(=C\c1cc(C#N)ccc1O)c1c[nH]c2ccc(Br)cc12 [Example 51, (Z)-3-(2-(5-bromo-1H-indol-3-yl)-2-cyanovinyl)-4-hydroxybenzonitrile] | 0.5 |
| N#C/C(=C\c1cc(C#N)ccc1OC(F)(F)F)c1c[nH]c2ccc(Cl)cc12 [Example 52, (Z)-3-(2-(5-chloro-1H-indol-3-yl)-2-cyanovinyl)-4-(trifluoromethoxy)benzonitrile] | 0.85 |
| N#C/C(=C\c1cc(C#N)ccc1OC(F)(F)F)c1c[nH]c2ccc(Br)cc12 [Example 53, (Z)-3-(2-(5-bromo-1H-indol-3-yl)-2-cyanovinyl)-4-(trifluoromethoxy)benzonitrile] | 0.38 |

Target: T1, Human recombinant MKlp2 motor domain1-519, His tagged (Homo sapiens, UniProt O95235)
T1 construct: Human recombinant MKlp2 motor domain1-519, His tagged; His; purchased Cytoskeleton MP05
T1 sequence (O95235 1-519): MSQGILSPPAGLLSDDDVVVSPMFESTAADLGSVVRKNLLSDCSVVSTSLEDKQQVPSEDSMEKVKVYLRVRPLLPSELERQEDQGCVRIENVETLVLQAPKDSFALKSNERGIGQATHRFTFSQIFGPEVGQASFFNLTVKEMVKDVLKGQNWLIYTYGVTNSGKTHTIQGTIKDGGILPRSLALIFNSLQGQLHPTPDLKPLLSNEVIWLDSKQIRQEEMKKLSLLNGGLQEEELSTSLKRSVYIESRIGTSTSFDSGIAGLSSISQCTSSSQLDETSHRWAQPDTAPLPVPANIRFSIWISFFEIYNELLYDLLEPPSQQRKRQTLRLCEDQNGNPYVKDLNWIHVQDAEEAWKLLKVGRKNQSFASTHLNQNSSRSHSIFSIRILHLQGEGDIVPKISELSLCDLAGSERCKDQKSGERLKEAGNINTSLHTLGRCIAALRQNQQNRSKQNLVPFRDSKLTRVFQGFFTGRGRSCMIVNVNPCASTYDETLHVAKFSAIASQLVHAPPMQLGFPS
Assay: Microtubule stimulated ATPase activity of the MKlp2 motor domain (Kinesin ELIPA Assay Kit)
Assay type: biochemical
Settings: MKIp2 IC50 (μM), Table 3, 22° C.
Method: Evaluation of Inhibitory Effects on the Microtubule Stimulated ATPase Activity of the MKlp2 Motor Domain.
MKlp2 ATPase activity was measured by monitoring real time free phosphate generation using the Kinesin ELIPA Assay Kit. The assay is based upon an absorbance shift (330 nm-360 nm) that occurs when 2-amino-6-mercapto-7-methylpurine ribonucleoside (MESG) is catalytically converted to 2-amino-6-mercapto-7-methylpurine in the presence of inorganic phosphate (Pi). One molecule of Pi will yield one molecule of 2-amino-6-mercapto-7-methylpurine in an essentially irreversible reaction.
All experiments were performed at 22° C.
Condition 1, compound preparation.
The compounds were dissolved in DMSO at 30× the maximum concentration to be tested. […] DMSO solutions were pipetted directly into each well.
Condition 2, reaction's “motor mix”.
The following were mixed sequentially in the specified order at RT to obtain the “motor mix”.
20 mL: 15 mM Pipes-NaOH pH 7.0, 10 mM MgCl2, 30 μM Tx (Buffer 1).
10 mL: 5× MSEG (ELIPA 1 reagent, Cat. # BK051).
10 mL: 2.5 mg/mL porcine brain microtubules (3×10 mg Cat. # MT002-XL resuspended in 12 mL of Buffer 1).
0.5 mL: 100×PNP (ELIPA 2 reagent, cat. # BK051).
Condition 3, reaction initiation.
The motor mix was pipetted into each well to obtain 80% of total volume. The reaction was initiated by adding a 20% of total volume of 5 mM ATP into each well.
The reactions were measured in a SpectraMax M2 (Molecular Devices) set in kinetic mode and 360 nm absorbance wavelength. The start protocol was 5 second rapid circular mixing, 21 readings, 30 seconds apart.

| SMILES | IC50 [µM] |
| --- | --- |
| COc1ccc2[nH]cc(C(C#N)=Cc3cccnc3)c2c1 [W02010/150211-Example 4, reference compound] | 4.2 |
| CCOc1ccc2[nH]cc(C(C#N)=Cc3cccnc3)c2c1 [W02010/150211-Example 22, reference compound] | 5.2 |
| CC(C)Oc1ccc2[nH]cc(C(C#N)=Cc3cccnc3)c2c1 [W02010/150211-Example 23, reference compound] | 5.2 |
| N#CC(=Cc1cccnc1)c1c[nH]c2ccc(Cl)cc12 [W02010/150211-Example 24, reference compound] | 1.1 |
| COc1ccc2c(C(C#N)=Cc3cccnc3)c[nH]c2c1 [W02010/150211-Example 26, reference compound] | 26.5 |
| COc1ccc2[nH]cc(C(C#N)=Cc3ccc(F)nc3)c2c1 [W02010/150211-Example 28, reference compound] | 2.4 |
| COc1ccc2[nH]cc(C(C#N)=Cc3cccc(C#N)c3)c2c1 [W02010/150211-Example 30, reference compound] | 4.4 |
| COc1ccc2[nH]cc(C(C#N)=Cc3cnccc3C)c2c1 [W02010/150211-Example 31, reference compound] | 2.3 |
| COc1ccc2[nH]cc(C(C#N)=Cc3cnccc3Cl)c2c1 [W02010/150211-Example 47, reference compound] | 1.6 |
| COc1ccc2[nH]cc(C(C#N)=Cc3ccc(OC)nc3)c2c1 [W02010/150211-Example 52, reference compound] | 12.6 |

Same assay, conditions: Table 3, 22° C., read-out: MKIp2 IC50

| SMILES | IC50 [µM] |
| --- | --- |
| N#C/C(=C\c1cnccc1Sc1ccc(F)cc1)c1c[nH]c2ccc(Br)cc12 [Example 28, (Z)-2-(5-bromo-1H-indol-3-yl)-3-(4-((4-fluorophenyl)thio)pyridin-3-yl)acrylonitrile] | 0.09 |
| N#C/C(=C\c1cnccc1Sc1ccccn1)c1c[nH]c2ccc(Br)cc12 [Example 31, (Z)-2-(5-bromo-1H-indol-3-yl)-3-(4-(pyridin-2-ylthio)pyridin-3-yl)acrylonitrile] | 0.4 |
| N#C/C(=C\c1cnccc1-n1cncn1)c1c[nH]c2ccc(Br)cc12 [Example 32, (Z)-3-(4-(1H-1,2,4-triazol-1-yl)pyridin-3-yl)-2-(5-bromo-1H-indol-3-yl)acrylonitrile] | 0.06 |
| N#C/C(=C\c1cnccc1-n1cncn1)c1c[nH]c2ccc(Cl)cc12 [Example 33, (Z)-3-(4-(1H-1,2,4-triazol-1-yl)pyridin-3-yl)-2-(5-chloro-1H-indol-3-yl)acrylonitrile] | 0.1 |
| CN(C)CCSc1ccncc1/C=C(\C#N)c1c[nH]c2ccc(Br)cc12 [Example 36] | 0.3 |
| COc1ccc(C#N)cc1/C=C(\C#N)c1c[nH]c2ccc(Cl)cc12 [Example 40, (Z)-3-(2-(5-chloro-1H-indol-3-yl)-2-cyanovinyl)-4-methoxybenzonitrile] | 0.2 |
| CN(C)c1ccc(C#N)cc1/C=C(\C#N)c1c[nH]c2ccc(Cl)cc12 [Example 41, (Z)-3-(2-(5-chloro-1H-indol-3-yl)-2-cyanovinyl)-4-(dimethylamino)benzonitrile] | 0.4 |

The next lines start with the values.

| IC50 [µM] | SMILES |
| --- | --- |
| 0.3 | N#C/C(=C\c1cnccc1Sc1ccc(F)cc1)c1c[nH]c2ccc(Cl)cc12 [Example 27, (Z)-2-(5-chloro-1H-indol-3-yl)-3-(4-((4-fluorophenyl)thio)pyridin-3-yl)acrylonitrile] |
| 0.3 | N#C/C(=C\c1cnccc1Sc1ccccn1)c1c[nH]c2ccc(Cl)cc12 [Example 30, (Z)-2-(5-chloro-1H-indol-3-yl)-3-(4-(pyridin-2-ylthio)pyridin-3-yl)acrylonitrile] |
| < 0.07 | COc1ccncc1/C=C(\C#N)c1c[nH]c2ccc(Cl)cc12 [Example 35, (Z)-2-(5-chloro-1H-indol-3-yl)-3-(4-methoxypyridin-3-yl)acrylonitrile, Hydrochloride] |
| 0.9 | N#C/C(=C\c1cc(C#N)ccc1Oc1ccc(F)cc1)c1c[nH]c2ccc(Br)cc12 [Example 37, (Z)-3-(2-(5-bromo-1H-indol-3-yl)-2-cyanovinyl)-4-(4-fluorophenoxy)benzonitrile] |
| 0.6 | CCSc1ccc(C#N)cc1/C=C(\C#N)c1c[nH]c2ccc(Cl)cc12 [Example 42, (Z)-3-(2-(5-chloro-1H-indol-3-yl)-2-cyanovinyl)-4-(ethylthio)benzonitrile] |
| 0.2 | COc1ccncc1/C=C(\C#N)c1c[nH]c2cc(Br)ccc12 [Example 45, (Z)-2-(6-bromo-1H-indol-3-yl)-3-(4-methoxypyridin-3-yl)acrylonitrile] |
| 0.12 | COc1ccncc1/C=C(\C#N)c1c[nH]c2cc(F)ccc12 [Example 46, (Z)-2-(6-fluoro-1H-indol-3-yl)-3-(4-methoxypyridin-3-yl)acrylonitrile] |
| 0.2 | COc1ccncc1/C=C(\C#N)c1c[nH]c2cc(Cl)ccc12 [Example 47, (Z)-2-(6-chloro-1H-indol-3-yl)-3-(4-methoxypyridin-3-yl)acrylonitrile] |
| 0.57 | COC(=O)CC(=O)n1cc(/C(C#N)=C/c2cnccc2OC)c2cc(Br)ccc21 [Example 59, (Z)-methyl-3-(5-bromo-3-(1-cyano-2-(4-methoxypyridin-3-yl)vinyl)-1H-indol-1-yl)-3-oxopropanoate] |
| 0.35 | COc1ccncc1/C=C(\C#N)c1cn(C(=O)OCCN2CCN(C)CC2)c2ccc(Br)cc12 [Example 62, (Z)-2-(4-methylpiperazin-1-yl)ethyl 5-bromo-3-(1-cyano-2-(4-methoxypyridin-3-yl)vinyl)-1H-indole-1-carboxylate] |
